Assay results as given in patent publication US20220144853A1, “IMIDAZOLINE DERIVATIVES AS CXCR4 MODULATORS” (Université de Paris, priority 2019, published 2022).
Counter-ions that a name gives are not always drawn.

What was measured:
IL-1β = test: Cytokine production by R848-activated PBMCs, LEGENDplex Human Inflammation panel 1: IL-1β; assay type: cell-based; details: Homo sapiens, PBMC, PBMCs from 2 healthy donors, R848 overnight, read-out: IC50 (μM) 1L-1β
Method: (§1) 2) The PBMCs used herein were prepared as described in part A “immune cells preparation”, section 2) above. PBMCs were seeded at 4.10^6/mL. […] Cells were then stimulated with the TLR7/8 agonist resiquimod—R848 (Sigma-Aldrich, MO, USA) at 5 μg/mL.
(§2) Cytokine expression levels were assessed using LEGENDplex Human inflammation panel 1 Kit (BioLegend, California, USA), which is a bead-based multiplex assay, using fluorescence-encoded beads. […] First, supernatants of R848-stimulated PBMCs were harvested after 24 h of stimulation and frozen at −20° C. for storage. Supernatants were dispensed into a 96-well V-bottom plate. Protocol pursued as per manufacturer recommendations (Manual for BioLegend LEGENDplex, Multi-Analyte Flow Assay Kit, Human Inflammation Panel 1, version 750000393_R01).

[1] = tested on: IFN production by activated immune cells (PBMC) from lupus patients; test: IFN production by R848-activated PBMC from lupus patients, STING-37 reporter cell line; assay type: cell-based, human; details: 10 μM, PBMC from three SLE patients, FIG. 2
Method: Material from Juvenile Dermatomyositis and Lupus patients were obtained from Necker Hospital, Paris, France or from Imagine Institute, Paris, France. The study was approved by the Conité des Protection des Personnes (ID-RCB/EUDRACT: 2014-A01017-40 and 2018-A01358-47) in France.
In vitro experiments were performed using human peripheral blood mononuclear cells (PBMCs) isolated by density centrifugation from peripheral blood leukocyte separation medium (Cambrex, Gaithersburg, Md.).
PBMCs were cultured in RPMI 1640 (Invitrogen, Gaithersburg, Md.) (R10) containing 10% heat-inactivated fetal bovine serum, 100 U/mL Penicilium and 100 μg/mL Streptomycin (1% Pen-Strep) and 1 mM glutamine (Hyclone, Logan, Utah).
1) The PBMCs used herein were prepared as described in part A “immune cells preparation”, section 1) above. PBMCs were seeded at 2.10^6/mL. […] Cells were then stimulated with the TLR7/8 agonist resiquimod—R848 (Invivogen) at 5 μg/mL. […]
1) To quantify the secretion of functional IFN, a biological assay based on a stable cell line where luciferase reporter gene is controlled by five Interferon-Stimulated Response Elements (STING37 cell line) was used. […] After 24 h of culture, luciferase activity was determined by adding 50 μL of Bright-Glo reagents (Promega) to culture wells and measuring bioluminescence with a luminometer.

[2] = target: T1, human CXCR4 (hCXCR4) receptor (Homo sapiens, UniProt P61073); test: BRET assay of antagonist activity on the CXCR4-CXCL12 signaling pathway in transfected HEK-293 T cells; assay type: cell-based; details: Gαi1, Gαi2, Gαi3, GαoB or Gαz, EC80 CXCL12, FIG. 6
T1 construct: expressed in transfected cells; host or cells: HEK-293 T cells, transient co-transfection with polyethylenimine
T1 sequence (P61073 whole entry): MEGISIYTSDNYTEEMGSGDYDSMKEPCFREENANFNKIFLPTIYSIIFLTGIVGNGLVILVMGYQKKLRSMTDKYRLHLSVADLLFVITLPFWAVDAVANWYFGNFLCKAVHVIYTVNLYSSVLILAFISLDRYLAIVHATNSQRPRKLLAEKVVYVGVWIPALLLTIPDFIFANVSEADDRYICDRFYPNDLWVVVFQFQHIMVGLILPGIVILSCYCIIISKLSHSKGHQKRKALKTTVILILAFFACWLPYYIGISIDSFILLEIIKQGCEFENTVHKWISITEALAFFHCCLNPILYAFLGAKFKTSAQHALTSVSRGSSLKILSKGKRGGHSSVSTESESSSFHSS
Method: Examples of the present invention were tested for their antagonist activity on human CXCR4 (hCXCR4) receptor transiently over-expressed in HEK-293 T cells. Compounds exert antagonist activity if they decrease the action of CXCL12 on the receptor.
HEK-293 T cells are maintained in Dulbecco's Modified Eagle's Medium supplemented with 10% Foetal Calf Serum, 1% Penicillin/Streptomycin at 37° C./5% CO2. […] After transfection, cells are cultured for 48 h at 37° C./5% CO2.
On the day of the assay, cells are detached using trypsin 0.05%, resuspended in assay buffer (1.8 mM CaCl2, 1 mM MgCl2, 2.7 mM KCl, 137 mM NaCl, 0.4 mM NaH2PO4, 5.5 mM D-Glucose, 11.9 mM NaHCO3, 25 mM Hepes) and seeded in 384 well plate at a density of 20,000 cells per well.
Cells are first incubated for 10 minutes with the compound alone. Then, cells are stimulated by an EC80 CXCL12 concentration for additional 10 minutes and luminescence is recorded. […] Antagonist activity is evaluated in comparison to basal signals evoked by EC80 CXCL12 alone.
For IC50 determination, a dose-response test is performed using 20 concentrations (ranging over 6 logs) of each compound. Dose-response curves are fitted using the sigmoidal dose-response (variable slope) analysis in GraphPad Prism software (GraphPad Software) and IC50 of antagonist activity is calculated. […]

TNF-α = test: Cytokine production by R848-activated PBMCs, LEGENDplex Human Inflammation panel 1: TNF-α; assay type: cell-based; details: Homo sapiens, PBMC, PBMCs from 2 healthy donors, R848 overnight
Method: as §1, §2

[3] = tested on: IFN production by activated PBMCs; test: IFN production by R848-activated PBMCs from healthy donors, twINNE reporter cell line; assay type: cell-based, human; details: Homo sapiens, PBMC, means of two results over 2 healthy donors, R848 5 μg/mL, IT1t: mean over all experiments, read-out: IC50 of anti-inflammatory activity (IFN production)
Summary of the method: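 Human PBMCs (4.10^6/mL, RPMI/10% FBS, 37° C) stimulated with R848 at 5 μg/mL; supernatants collected after 24 h. Functional IFN measured on twINNE cells (ISRE-driven luciferase reporter) after 24 h culture by bioluminescence; IC50 from variable-slope dose-response fits.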

SMILES: CC1(C)CN2C(CSC3=NCC(C)(C)N3)=CSC2=N1 [Example 2, 3-(((5,5-dimethyl-4,5-dihydro-1H-imidazol-2-yl)thio)methyl)-6,6-dimethyl-5,6-dihydroimidazo[2,1-b]thiazole dihydrochloride]
- IC50 (IL-1β): 32 µM
- IFN production by activated PBMCs [1]: level similar to the one of unstimulated negative controls
- antagonist activity: recruitment of G proteins induced by the hCXCR4-CXCL12 interaction [2]: significantly lower than IT1t
- IC50 (TNF-α): 46 µM
- IC50 [3]: 10 to 31 µM
